Source: article PMC5653977 (EMBO Molecular Medicine, 2017)
Like-named read-outs stand apart in the source and are kept apart here.

Legend:
ERK = assay: Western blot of pERK in prefrontal cortex of spironolactone-treated mice; type: in vivo, mouse; conditions: Nrg1-tg and wt mice, 50 mg/kg s.c. daily for 21 days, prefrontal cortex lysates
Protocol: For the generation of lysates, the isolated tissue was immediately placed into cooled (4°C) sucrose buffer (320 mM sucrose, 10 mM Tris–HCl, 1 mM NaHCO3, 1 mM MgCl2, supplemented with 10 mM NaF, 1 mM […], 1 mM ZnCl2, 4.5 mM Na4P20_7 as phosphatase inhibitors, and the complete protease inhibitor cocktail (Roche)), homogenized using an ultra‐turrax (IKA GmbH, Staufen, Germany), sonicated (3 pulses for 10 s), and denatured for 10 min at 70°C in LDS sample buffer.
Each blot was replicated two times.
(§1) Treatment was continued throughout the behavioral analysis period. To avoid injection‐induced stress prior to behavioral testing, mice were injected in the afternoon, after the entire cohort has completed the behavioral paradigm.

Nrg1-tg and wt mice [1] = assay: Y-maze test; type: in vivo, mouse; conditions: 50 mg/kg s.c. daily
Protocol: (§2) For behavioral testing, age‐matched male mice (8–16 weeks) on C57Bl/6 background that constitutively overexpress the 2xHA‐tagged Nrg1 type III β1a isoform (Nrg1‐tg) under the control of the mouse Thy1.2 promoter (Velanac et al, 2012) and their wild‐type (wt) littermates as controls were used. Animals were group‐housed in the same ventilated sound‐attenuated rooms under a 12‐h light/12‐h dark schedule (lights on at 8:00 am) at an ambient temperature of 21°C with food and water available ad libitum. One week prior to experiments, mice were separated into single cages and habituated to the experimental rooms. To minimize the influence of the circadian rhythm on drug actions, the treatment groups were analyzed at balanced time points during the light phase. […] All animal experiments were conducted in accordance with NIH principles of laboratory animal care and were approved by the Government of Lower Saxony, Germany, in accordance with the German Animal Protection Law.
as §1

ERBB4 = ERBB4 (Homo sapiens, UniProt Q15303); assay: Western blot of ERBB4 phosphorylation in T-47D cells; conditions: 10 ng/ml EGFld, 10 μM compound, 5 min
Nrg1-tg and wt mice [2] = assay: Open field test; type: in vivo, mouse; conditions: 50 mg/kg s.c. daily
Protocol: as §2, §1
Spontaneous locomotor activity was verified in the open‐field test using a Plexiglas box (45 × 45 × 55 cm). The same test arena was modified with a floor insert containing 16 symmetrically allocated holes for the hole board test. During a 10‐min testing session, mouse behavior was monitored by infrared sensors and recorded by the ActiMot software (TSE, Bad Homburg, Germany). Levels of urination (scored in events) and defecation (scored as feci in events) were determined manually during the open‐field test.

Nrg1-tg and wt mice [3] = assay: Hot plate test; type: in vivo, mouse; conditions: 50 mg/kg s.c. daily
Protocol: as §2, §1

[4] = set-up: method as in Juruena et al, 2009; conditions: ref Juruena et al, 2009; cited from earlier work
Nrg1-tg and wt mice [5] = assay: Fear conditioning; type: in vivo, mouse; conditions: 50 mg/kg s.c. daily
Protocol: as §2, §1

TEV protease = target: T1, TEV protease (Tobacco etch virus, UniProt P04517); assay: TEV protease activity control assay (TM-TEV/TM-tevS-GV); type: cell-based; conditions: TM-TEV, TM-tevS-GV and 10×UAS-Fluc in PC12 cells
T1 construct: a transmembrane‐localized TEV protease (TM‐TEV) was expressed in PC12 cells; expressed in transfected cells; host or cells: PC12 Tet-Off cells (rat)
Description: All counts (407 compounds and 96 controls) from the Nrg1‐ERBB4‐PIK3R1 split TEV compound screen were plotted against the z‐score using Mondrian, with pathway activators displaying high values and inhibitors low values. For the secondary analysis, we selected all candidates that were at least three standard deviations away from the mean. […] For the GAL4/UAS assay, GAL4‐VP16 (GV) and 10×UAS firefly luciferase (10×UAS‐Fluc) plasmids were transfected into PC12 cells. For TEV protease activity assays, a transmembrane‐localized TEV protease (TM‐TEV) was expressed in PC12 cells with a transmembrane‐localized and TEV‐cleavable GV (TM‐tevS‐GV) and the 10×UAS‐Fluc reporter. […] EGFld was applied as Nrg1 stimulus. In both control assays, the assay activity (firefly luciferase, black lines) was similar to the toxicity levels (gray lines). Data are shown as mean, a nd error bars represent SEM, n = 6. The insets depict IC50 values in μM.

[6] = target: EGFR-NTEV-tevS-GV + ERBB3-CTEV (Homo sapiens, UniProt P00533+P21860); assay: ERBB dimerization split TEV assay EGFR/ERBB3; type: cell-based; conditions: 10 ng/ml EGFld
Description: (§3) Gateway recombination cloning (Life Technologies) was applied for generating plasmids. Each ORF cloned was PCR‐amplified using the Pwo proofreading DNA polymerase (Roche) and BP‐recombined into the pDONR/Zeo plasmid (Life Technologies) to yield an entry vector, which was control‐digested using BsrGI to release the insert, and sequence‐verified. The following human ORFs were cloned using cDNA image clones ordered from Source BioScience: ERBB4 transcript variant JM‐a/CYT‐1 (Accession: BC112199), PIK3R1 (BC094795), GRB2 transcript variant 1 (BC000631), SHC1 transcript variant 2 (BC014158), STAT5A (BC027036), and SRC transcription variant 1 (BC051270). For EGFR, ERBB2, and ERBB3, entry vectors were obtained from the human CCSB kinase collection available from Addgene (Johannessen et al, 2010). Entry vectors were LR‐recombined into split TEV destination vectors [either pcDNA_attR1‐ORF‐attR2‐NTEV‐tevS‐GV‐2xHA_DEST or pTag4C_attR1‐ORF‐attR2‐CTEV‐2xHA_DEST, plasmids were described in detail before (Wehr et al, 2006)] to yield expression vectors, which were control‐digested using BsrGI. The plasmids for Nrg1 type I β1a and rat Nrg1 type III β1a have been described before (Wehr et al, 2006).

EGFR dimers = EGFR dimers (Homo sapiens, UniProt P00533); assay: ERBB dimerization split TEV assay EGFR/EGFR; type: cell-based
Description: as §3

EGFR dimers, sequence (P00533 25-1210): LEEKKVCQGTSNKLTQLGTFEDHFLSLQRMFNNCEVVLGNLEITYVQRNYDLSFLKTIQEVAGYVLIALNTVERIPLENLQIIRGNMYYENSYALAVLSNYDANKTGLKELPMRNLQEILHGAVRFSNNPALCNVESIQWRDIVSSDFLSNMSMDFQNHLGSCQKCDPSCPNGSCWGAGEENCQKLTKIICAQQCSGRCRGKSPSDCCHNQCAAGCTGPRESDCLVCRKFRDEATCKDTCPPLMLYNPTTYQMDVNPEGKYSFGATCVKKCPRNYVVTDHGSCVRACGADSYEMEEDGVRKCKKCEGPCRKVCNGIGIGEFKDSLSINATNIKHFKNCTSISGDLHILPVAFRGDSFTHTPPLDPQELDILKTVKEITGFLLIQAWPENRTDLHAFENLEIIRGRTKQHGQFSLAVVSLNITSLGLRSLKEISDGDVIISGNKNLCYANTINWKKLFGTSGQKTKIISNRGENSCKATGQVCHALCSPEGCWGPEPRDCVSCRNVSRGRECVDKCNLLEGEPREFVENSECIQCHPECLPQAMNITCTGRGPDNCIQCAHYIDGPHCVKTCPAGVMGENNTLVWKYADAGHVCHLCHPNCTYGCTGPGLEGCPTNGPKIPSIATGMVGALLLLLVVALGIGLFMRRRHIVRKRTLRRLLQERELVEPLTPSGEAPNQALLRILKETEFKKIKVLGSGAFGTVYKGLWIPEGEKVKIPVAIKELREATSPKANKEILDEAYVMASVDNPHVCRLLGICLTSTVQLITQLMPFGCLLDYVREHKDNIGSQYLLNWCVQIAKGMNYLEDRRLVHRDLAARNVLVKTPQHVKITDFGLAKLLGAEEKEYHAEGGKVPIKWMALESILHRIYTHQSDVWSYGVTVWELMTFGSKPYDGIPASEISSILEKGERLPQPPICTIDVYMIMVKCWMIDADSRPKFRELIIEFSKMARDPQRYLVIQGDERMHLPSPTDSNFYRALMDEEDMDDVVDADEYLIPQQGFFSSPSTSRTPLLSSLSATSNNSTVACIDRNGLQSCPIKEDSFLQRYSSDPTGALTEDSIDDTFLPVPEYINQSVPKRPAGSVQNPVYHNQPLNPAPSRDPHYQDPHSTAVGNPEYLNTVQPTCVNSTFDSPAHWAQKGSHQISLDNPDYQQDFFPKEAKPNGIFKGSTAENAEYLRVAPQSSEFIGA
EGFR dimers, sequence (P00533 25-1210): as above
T1 sequence (P04517 2038-2279): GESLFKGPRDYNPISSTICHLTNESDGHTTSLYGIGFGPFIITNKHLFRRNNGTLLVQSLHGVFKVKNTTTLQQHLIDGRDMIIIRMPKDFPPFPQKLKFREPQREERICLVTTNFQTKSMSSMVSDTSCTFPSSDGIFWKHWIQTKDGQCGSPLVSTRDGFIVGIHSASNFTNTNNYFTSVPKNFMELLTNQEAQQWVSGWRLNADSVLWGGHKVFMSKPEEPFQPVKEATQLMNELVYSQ
EGFR-NTEV-tevS-GV + ERBB3-CTEV, sequence (P00533 25-1210): as the sequence (P00533 25-1210) above
EGFR-NTEV-tevS-GV + ERBB3-CTEV, sequence (P21860 20-1342): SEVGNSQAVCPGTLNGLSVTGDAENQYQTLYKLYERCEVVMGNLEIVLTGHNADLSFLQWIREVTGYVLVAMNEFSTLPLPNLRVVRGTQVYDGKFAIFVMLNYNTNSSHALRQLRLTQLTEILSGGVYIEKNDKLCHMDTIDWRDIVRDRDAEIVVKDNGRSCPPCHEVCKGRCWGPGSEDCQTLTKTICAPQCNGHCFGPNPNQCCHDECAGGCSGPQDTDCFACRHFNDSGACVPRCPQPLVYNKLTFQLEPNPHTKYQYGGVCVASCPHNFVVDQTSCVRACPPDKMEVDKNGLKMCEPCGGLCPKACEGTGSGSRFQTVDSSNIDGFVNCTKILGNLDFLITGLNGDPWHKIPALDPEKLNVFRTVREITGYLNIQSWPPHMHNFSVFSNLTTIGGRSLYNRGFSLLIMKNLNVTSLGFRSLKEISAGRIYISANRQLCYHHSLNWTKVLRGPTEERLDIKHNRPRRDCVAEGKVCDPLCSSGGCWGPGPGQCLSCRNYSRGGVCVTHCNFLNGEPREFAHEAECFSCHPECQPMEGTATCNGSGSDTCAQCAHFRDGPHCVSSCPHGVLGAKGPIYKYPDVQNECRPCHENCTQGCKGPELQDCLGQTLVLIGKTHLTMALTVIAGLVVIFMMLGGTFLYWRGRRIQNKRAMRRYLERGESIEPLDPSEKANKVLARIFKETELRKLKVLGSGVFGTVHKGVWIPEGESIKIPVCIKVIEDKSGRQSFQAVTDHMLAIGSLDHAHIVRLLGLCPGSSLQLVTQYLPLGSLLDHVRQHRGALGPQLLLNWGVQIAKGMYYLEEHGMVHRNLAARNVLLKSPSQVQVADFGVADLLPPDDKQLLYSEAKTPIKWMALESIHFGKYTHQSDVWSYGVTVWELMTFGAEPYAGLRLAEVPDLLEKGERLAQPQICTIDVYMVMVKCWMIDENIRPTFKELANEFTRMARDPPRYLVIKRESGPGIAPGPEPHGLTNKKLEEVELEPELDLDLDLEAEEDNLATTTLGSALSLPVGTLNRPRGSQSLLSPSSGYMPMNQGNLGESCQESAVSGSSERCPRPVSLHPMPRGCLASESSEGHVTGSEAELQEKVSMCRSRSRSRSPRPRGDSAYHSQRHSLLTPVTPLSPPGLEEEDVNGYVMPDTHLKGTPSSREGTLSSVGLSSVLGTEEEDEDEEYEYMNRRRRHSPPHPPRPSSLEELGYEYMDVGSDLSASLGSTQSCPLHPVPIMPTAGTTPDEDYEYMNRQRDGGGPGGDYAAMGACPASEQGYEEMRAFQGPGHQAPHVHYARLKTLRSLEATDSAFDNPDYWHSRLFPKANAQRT

With `CC(=O)S[C@@H]1CC2=CC(=O)CC[C@]2(C)[C@H]2CC[C@@]3(C)[C@@H](CC[C@@]34CCC(=O)O4)[C@H]12` [Spironolactone] the “pERK (downstream signaling)” value (ERK) was “neither modulated by Nrg1 overexpression, nor by spironolactone treatment”, the “arm choices in the Y-maze (activity)” value (Nrg1-tg and wt mice [1]) was “There was no effect of treatment” and the “working memory (alterations in the Y-maze)” value (Nrg1-tg and wt mice [1]; Nrg1-tg mice) was “rescued these deficits”. For the same compound, the “ERBB4 phosphorylation at Tyr1056 and Tyr1284” value (ERBB4) was “reduced phosphorylation to intermediate levels”, the “defecation in the open-field test” value (Nrg1-tg and wt mice [2]) was “no effect of treatment observed” and the “time in the center of the open-field arena” value (Nrg1-tg and wt mice [2]) was “did not influence this parameter”. For the same compound, the “urination in the open-field test” value (Nrg1-tg and wt mice [2]) was “without effect of treatment”, the “locomotor hyperactivity (distance in the open-field arena)” value (Nrg1-tg and wt mice [2]; Nrg1-tg mice) was “reverted” and the “pain sensitivity (latency to the first reaction, hot plate 52°C)” value (Nrg1-tg and wt mice [3]) was “significantly decreased levels of pain sensitivity”. The “anxiety in a small group of patients suffering from bipolar disorder” value [4] was “partially improved”, the cue memory (Nrg1-tg and wt mice [5]) was “neither genotype nor treatment‐dependent alterations” and the “freezing in the contextual fear memory test” value (Nrg1-tg and wt mice [5]; Nrg1-tg mice) was “non‐significant reduction in freezing”. For the same compound, the “effect on activity of the TEV protease” value (TEV protease) was “does not affect activities of control assays”, the IC50 [6] was 2810 nM and the IC50 (EGFR dimers; 100 ng/ml EGF as stimulus, read-out: IC50, EGFR dimers, stimulus EGF) was 1740 nM. The IC50 (EGFR dimers; PC12 cells, 10 ng/ml EGFld, read-out: IC50, EGFR-NTEV-tevS-GV + EGFR-CTEV) was 8500 nM.
